Source: ChEMBL document CHEMBL5131397, “Discovery and Optimization of Pyrazole Amides as Inhibitors of ELOVL1” (J Med Chem, 2021)
Active and inactive are the calls of the source. The rule behind the calls is not given here.

What was measured:
[1] = target: T1, Very long chain fatty acid elongase 7 (Homo sapiens, UniProt A1L3X0); test: Inhibition of ELOVL7 (unknown origin) using C18-acyl-CoA as substrate by radiometric enzyme assay
T1 sequence (A1L3X0 whole entry): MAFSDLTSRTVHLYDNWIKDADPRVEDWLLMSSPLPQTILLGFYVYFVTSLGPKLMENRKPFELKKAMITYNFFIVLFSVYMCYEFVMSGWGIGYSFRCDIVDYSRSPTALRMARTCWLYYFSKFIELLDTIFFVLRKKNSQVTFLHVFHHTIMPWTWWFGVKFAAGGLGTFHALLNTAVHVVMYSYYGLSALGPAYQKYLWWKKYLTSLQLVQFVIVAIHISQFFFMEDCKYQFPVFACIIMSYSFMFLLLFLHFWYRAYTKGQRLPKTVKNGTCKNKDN

[2] = Reduction in C26:0/C16:0 LPC level in ABCD1 knock out mouse CNS at 8 mg/kg, po qd measured after 6 months of dosing by LC-MS/MS analysis; type: functional; design: scale not given: the % may be the effect or the level left; conditions: 4380 h
[3] = Reduction in C26:0/C16:0 LPC level in wild-type Sprague-Dawley rat at 30 mg/kg, po qd treated for 7 days by LC-MS/MS analysis; type: functional; design: scale not given: the % may be the effect or the level left; conditions: time 7 day
[4] = Half life in Beagle dog at 0.5 mg/kg, iv upto 48 hrs by LC/MS/MS analysis; type: ADME, organism-based, Canis lupus familiaris; conditions: in vivo
[5] = Cmax in Beagle dog at 3 mg/kg, po upto 24 hrs by LC/MS/MS analysis; type: ADME, organism-based, Canis lupus familiaris; design: dose 3 mg/kg, time < 24 hrs, route po; conditions: in vivo
[6] = target: Rho-associated protein kinase 2 (Homo sapiens) (UniProt O75116); test: Inhibition of ROCK 2 (unknown origin) at 10 uM
Rho-associated protein kinase 2 (Homo sapiens), sequence (O75116 whole entry, looked up): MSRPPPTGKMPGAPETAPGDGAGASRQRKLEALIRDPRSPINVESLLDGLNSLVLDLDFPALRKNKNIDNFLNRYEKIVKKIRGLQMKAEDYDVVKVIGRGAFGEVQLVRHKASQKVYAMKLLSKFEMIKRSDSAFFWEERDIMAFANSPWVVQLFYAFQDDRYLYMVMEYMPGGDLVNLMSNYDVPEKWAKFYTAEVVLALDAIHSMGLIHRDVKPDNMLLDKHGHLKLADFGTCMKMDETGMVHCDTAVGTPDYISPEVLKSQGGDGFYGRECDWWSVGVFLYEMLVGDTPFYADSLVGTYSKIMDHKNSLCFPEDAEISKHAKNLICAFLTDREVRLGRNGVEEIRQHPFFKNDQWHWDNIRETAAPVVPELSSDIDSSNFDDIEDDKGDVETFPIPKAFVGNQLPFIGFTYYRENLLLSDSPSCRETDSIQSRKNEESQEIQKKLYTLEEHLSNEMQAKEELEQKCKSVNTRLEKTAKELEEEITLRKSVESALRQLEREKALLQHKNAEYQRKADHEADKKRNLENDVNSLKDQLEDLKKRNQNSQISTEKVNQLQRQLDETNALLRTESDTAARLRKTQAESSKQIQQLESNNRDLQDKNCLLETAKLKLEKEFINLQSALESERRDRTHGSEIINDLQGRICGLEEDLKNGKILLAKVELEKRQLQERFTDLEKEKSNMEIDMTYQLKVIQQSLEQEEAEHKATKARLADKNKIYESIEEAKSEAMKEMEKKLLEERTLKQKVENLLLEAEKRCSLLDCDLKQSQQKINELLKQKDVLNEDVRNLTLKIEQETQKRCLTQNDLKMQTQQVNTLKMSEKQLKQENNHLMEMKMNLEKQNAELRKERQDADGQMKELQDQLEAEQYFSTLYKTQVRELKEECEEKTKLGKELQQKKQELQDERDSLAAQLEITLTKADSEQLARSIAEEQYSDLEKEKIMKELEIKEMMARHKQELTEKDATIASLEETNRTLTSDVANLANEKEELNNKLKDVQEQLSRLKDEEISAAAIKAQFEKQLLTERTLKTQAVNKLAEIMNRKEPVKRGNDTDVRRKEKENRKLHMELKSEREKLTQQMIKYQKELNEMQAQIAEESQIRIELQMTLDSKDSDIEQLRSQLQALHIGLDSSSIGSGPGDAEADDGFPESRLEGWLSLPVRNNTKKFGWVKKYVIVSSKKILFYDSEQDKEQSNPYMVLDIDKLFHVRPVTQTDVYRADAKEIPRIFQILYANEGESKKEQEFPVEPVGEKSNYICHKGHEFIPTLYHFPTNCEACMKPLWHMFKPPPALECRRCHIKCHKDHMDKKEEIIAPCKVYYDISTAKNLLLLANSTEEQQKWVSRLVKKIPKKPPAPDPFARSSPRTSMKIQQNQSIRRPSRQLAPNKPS

[7] = Toxicity in Cynomolgus monkey assessed as hyperkeratosis at 5 to 50 mg/kg/day, po administered for 14 days by microscopic observation analysis; type: organism-based, Macaca fascicularis; conditions: in vivo, 336 h, dose 5-50 mg/kg/day, time 14 day
[8] = Reduction in C26:0 LPC level in Cynomolgus monkey plasma at 15 mg/kg, po qd for 13 weeks by LC-MS/MS analysis (reference value: 2.495 ng/ml); type: functional, Macaca fascicularis
[9] = Reduction in C26:0 LPC level in ELOVL-1 KO clonal human HEK-293T cells in presence of 13C-labeled acetate measured after 48 hrs by mass spectroscopy relative to control; type: functional; design: scale not given: the % may be the effect or the level left
[10] = Toxicity in Sprague-Dawley rat assessed as decrease in body weight at 5 to 50 mg/kg/day, po administered for 2 weeks; type: organism-based; conditions: in vivo, 336 h, dose 5-50 mg/kg/day
[11] = Toxicity in Cynomolgus monkey assessed as dry and red scaly areas on abdomen at 5 to 50 mg/kg/day, po administered for 14 days by macroscopic observation analysis; type: organism-based, Macaca fascicularis; conditions: in vivo, 336 h, dose 5-50 mg/kg/day, time 14 day
[12] = Toxicity in Cynomolgus monkey assessed as multifocal gliosis at 20 to 50 mg/kg/day, po administered for 14 days; type: organism-based, Macaca fascicularis; conditions: in vivo, 336 h, dose 20-50 mg/kg/day, time 14 day
[13] = Half life in Sprague-Dawley rat at 1 mg/kg, iv upto 48 hrs by LC/MS/MS analysis; type: ADME, organism-based; conditions: in vivo
[14] = Increase in C20:0/C16:0 LPC level in ABCD1 knock out mouse CNS at 1 mg/kg, po qd measured after 3 months of dosing by LC-MS/MS analysis; type: functional; conditions: 2190 h
[15] = Half life in mouse at 1 mg/kg, iv upto 48 hrs by LC/MS/MS analysis; type: ADME, organism-based; conditions: in vivo
[16] = Toxicity in ABCD1 knock out mouse assessed as decrease in body weight at 8 to 32 mg/kg, po qd treated for 6 months; type: organism-based; conditions: in vivo, 4380 h, dose 8-32 mg/kg
[17] = target: T2, Very long chain fatty acid elongase 1 (Homo sapiens, UniProt Q9BW60); test: Inhibition of ELOVL1 in AMN 1 patient-derived fibroblast assessed as reduction of C26:0 VLCFA synthesis incubated for 48 hrs by cellular assay; type: cell-based
T2 sequence (Q9BW60 whole entry): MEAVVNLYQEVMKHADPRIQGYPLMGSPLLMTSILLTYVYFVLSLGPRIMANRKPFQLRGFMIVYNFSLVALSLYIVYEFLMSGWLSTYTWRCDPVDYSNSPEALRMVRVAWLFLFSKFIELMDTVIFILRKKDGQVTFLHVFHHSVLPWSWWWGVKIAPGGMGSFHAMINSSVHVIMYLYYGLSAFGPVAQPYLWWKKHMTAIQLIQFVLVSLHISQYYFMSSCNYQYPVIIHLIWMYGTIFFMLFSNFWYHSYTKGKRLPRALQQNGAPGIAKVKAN

Mus musculus = test: Reduction in C26:0 LPC level in wild-type C57BL/6 mouse blood administered orally qd for 105 days by LC-MS/MS analysis; type: functional, tissue-based; conditions: route po, time 105.0 day, DDE = dose-dependent effect
[18] = target: T2, Very long chain fatty acid elongase 1; test: Inhibition of ELOVL1 in human HEK293 cells assessed as reduction of C26:0 VLCFA synthesis incubated for 48 hrs by cellular assay; type: cell-based
[19] = Toxicity in ABCD1 knock out mouse assessed as noticeable adverse effects at 8 to 32 mg/kg, po qd treated for 6 months; type: organism-based; conditions: in vivo, 4380 h, dose 8-32 mg/kg
[20] = Plasma protein binding in monkey at 5 uM; type: ADME, cell-free, Macaca mulatta; conditions: rhesus monkey, read-out: PPB (converted)
[21] = target: T3, Adenosine receptor A3 (Homo sapiens) (UniProt P0DMS8); test: Inhibition of Adenosine A3 Receptor (unknown origin) at 10 uM
T3 sequence (whole entry): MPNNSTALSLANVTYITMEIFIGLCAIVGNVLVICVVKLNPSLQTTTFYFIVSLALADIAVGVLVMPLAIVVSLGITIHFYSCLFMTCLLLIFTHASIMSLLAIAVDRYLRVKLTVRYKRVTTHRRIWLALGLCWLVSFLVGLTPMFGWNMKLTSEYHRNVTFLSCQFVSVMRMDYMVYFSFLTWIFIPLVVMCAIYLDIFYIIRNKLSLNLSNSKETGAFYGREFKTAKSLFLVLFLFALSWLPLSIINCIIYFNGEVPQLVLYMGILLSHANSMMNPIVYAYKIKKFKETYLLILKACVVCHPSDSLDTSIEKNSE

[22] = Toxicity in Sprague-Dawley rat assessed as reversal of lesions at 5 to 50 mg/kg/day, po administered for 8 weeks and measured after cessation dosing; type: organism-based; conditions: in vivo, 1344 h, dose 5-50 mg/kg/day
Fibroblast = test: Reduction in C26:0/C16:0 lysophosphatidyl choline levels in healthy donor-derived human fibroblast incubated for 48 hrs; type: functional, cell-based
[23] = target: T2, Very long chain fatty acid elongase 1; test: Inhibition of ELOVL1 in human microglia assessed as reduction of C26:0 VLCFA synthesis incubated for 48 hrs by cellular assay; type: cell-based
[24] = Tmax in Beagle dog at 3 mg/kg, po upto 24 hrs by LC/MS/MS analysis; type: ADME, organism-based, Canis lupus familiaris; conditions: in vivo
[25] = Toxicity in Cynomolgus monkey assessed as dry and red scaly areas on thorax at 5 to 50 mg/kg/day, po administered for 14 days by macroscopic observation analysis; type: organism-based, Macaca fascicularis; conditions: in vivo, 336 h, dose 5-50 mg/kg/day, time 14 day
[26] = AUC (infinity) in Sprague-Dawley rat at 3 mg/kg, po upto 24 hrs by LC/MS/MS analysis; type: ADME, organism-based; design: dose 3 mg/kg, time < 24 hrs, route po; conditions: in vivo

With `O=C(Nc1ccn(-c2ccnc(F)c2)n1)C1(c2ccccc2F)CC1` the IC50 [1] was > 500000 nM, the Activity [2] was 54% and the Activity [3] was 67%. For the same compound, the half-life [4] was 3.5 h, the Cmax [5] was 261 ng/mL and the inhibition [6] was > 50%. For the same compound, the Activity [7] was “Toxic”, the Activity [8] was 0.4475 ng/mL and the Activity [9] was 90%. The Activity [10] was “Toxic”, the Activity [11] was “Toxic” and the Activity [12] was “Toxic”. The half-life [13] was 3.5 h, the Activity [14] was 18% and the half-life [15] was 2.9 h. For the same compound, the Activity [16] was “Non-Toxic”, the IC50 [17] was 43 nM and the Activity (Mus musculus) was “Dde”. For the same compound, the IC50 [18] was 13 nM, the Activity [19] was “Non-Toxic” and the fraction unbound at 5 µM [20] was 0.094. The inhibition [21] was > 50%, the Activity [22] was “Non-Toxic” and the Activity (Fibroblast) was “Active”. The IC50 [23] was 11 nM, the Tmax [24] was 0.5 h and the Activity [25] was “Toxic”. For the same compound, the AUC [26] was 442 ng·h/mL.
